In article PMC4022671, “Characterization of Mannitol-2-Dehydrogenase in Saccharina japonica: Evidence for a New Polyol-Specific Long-Chain Dehydrogenases/Reductase” (PLoS ONE, 2014):

Biological target: T1, SjM2DH (mannitol-2-dehydrogenase) (Saccharina japonica, UniProt R9UHL6)
T1 construct: assayed in cell-free extract
Test: NADH depletion at OD340, crude E. coli extract with recombinant enzyme
Assay type: biochemical
Settings: NADH 1 mM, fructose 100 mM, 100 mM Tris-HCl pH 7.5, 35 °C

T1 sequence (R9UHL6 entry or part of it): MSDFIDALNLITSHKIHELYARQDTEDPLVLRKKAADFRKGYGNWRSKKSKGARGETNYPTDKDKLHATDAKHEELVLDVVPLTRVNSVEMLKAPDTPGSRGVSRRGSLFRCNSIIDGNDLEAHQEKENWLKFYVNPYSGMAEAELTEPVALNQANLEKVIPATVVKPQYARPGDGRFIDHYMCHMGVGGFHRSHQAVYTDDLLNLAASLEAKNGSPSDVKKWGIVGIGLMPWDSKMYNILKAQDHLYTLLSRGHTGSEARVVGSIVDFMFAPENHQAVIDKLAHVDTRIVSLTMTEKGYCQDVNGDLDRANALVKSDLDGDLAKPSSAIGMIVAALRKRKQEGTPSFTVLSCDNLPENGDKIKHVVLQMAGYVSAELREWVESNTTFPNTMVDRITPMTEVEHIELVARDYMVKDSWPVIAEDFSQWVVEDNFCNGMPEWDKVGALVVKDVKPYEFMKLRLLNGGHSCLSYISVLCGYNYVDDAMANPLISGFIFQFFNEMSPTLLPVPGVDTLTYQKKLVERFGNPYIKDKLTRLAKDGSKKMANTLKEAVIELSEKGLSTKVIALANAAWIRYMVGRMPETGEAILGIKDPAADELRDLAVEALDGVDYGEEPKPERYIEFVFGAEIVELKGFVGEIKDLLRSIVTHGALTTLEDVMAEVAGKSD

Structure (SMILES)	NADH depletion at OD340, crude E. coli extract with recombinant enzyme
OCC1(O)OC[C@@H](O)[C@@H](O)[C@@H]1O (stereo partly drawn) [D-fructose]	When D-fructose was applied as the substrate, a depletion of NADH was detected
NC(=O)C1=CN([C@@H]2O[C@H](COP(=O)(O)OP(=O)(O)OC[C@H]3O[C@@H](n4cnc5c(N)ncnc54)[C@H](O)[C@@H]3O)[C@@H](O)[C@H]2O)C=CC1 [NADH]	reduction of fructose by recombinant SjM2DH exclusively uses NADH as cofactor
